Measurements taken from patent US9820497B2, “Astaxanthin-containing pet foods” (FUJI CHEMICAL INDUSTRY CO., LTD, priority 2003, dated 2017).

Tests used:
[1] = Feces odor test (odor tester KALMOR-Σ) before and after administration; format: in vivo, dog; conditions: four dogs, 4 weeks of administration; conclusion from Table 3
Description: (§1) Four dogs were fed only with the same commercially available dog food for 3 months or more, and thereafter, two AstaReal tablets (manufactured by Natureal Corporation, containing 0.67 mg of free astaxanthin per tablet in terms of free astaxanthin) per day were given to the dogs at dinner for 4 weeks. […] The feces discharged before and after administration of astaxanthin were collected. Samples were prepared each by taking a piece from the top portion, middle portion and end portion in the same amount and mixing these pieces. The samples were placed in a shielded vessel of 100 ml in volume and kept in dark and used in tests within 24 hours.
Odor of the samples was measured by an odor tester (KALMOR-Σ, manufactured by Kalmor Co.) in a room maintained at 22° C. To explain more specifically, the odor of an airtight vinyl bag of 280 mm×200 mm containing no sample was measured as an initial value by inserting a test probe. Then, 100 mg of sample was weighed, placed in the vinyl bag and stand still for 15 minutes. The odor of the vinyl bag having the sample placed therein was measured (measured value). The value of the odor was obtained by subtracting the initial value from the measured value.

dogs = test: Health conditions of the dogs before and during administration; format: in vivo, dog; conditions: four dogs, before and during the 4 weeks of administration
Description: as §1

[2] = as high as β-carotene; cited from earlier work
[3] = known; cited from earlier work

CC1=C(/C=C/C(C)=C/C=C/C(C)=C/C=C/C=C(C)/C=C/C=C(C)/C=C/C2=C(C)C(=O)C(O)CC2(C)C)C(C)(C)CC(O)C1=O (stereo not drawn) [astaxanthin, 3,3′-dihydroxy-β,β-carotene-4,4′-dione]
odor of the excrement [1]: clearly is decreased
health conditions (diarrhea, fatigue) (dogs): healthy conditions without exhibiting diarrhea and fatigue
antioxidative action relative to β-carotene [2]: about 40 times
mutagenicity [3]: no mutagenicity is observed
